Experimental data published in patent US8546416B2, “3-spirocyclic piperidine derivatives as ghrelin receptor agonists” (Novartis AG, priority 2011, dated 2013).

What was measured:
[1] = Aqueous solubility of crystalline L-malate salt forms compared to free base amorphous form; format: physicochemical; details: crystalline L-malate salt compared to the free base amorphous form
[2] = molecular target: T1, human recombinant ghrelin receptor (GHS-R1a) (Homo sapiens, UniProt Q92847); test: hGHS-R1a cAMP assay (HTRF cAMP dynamic 2 kit, CHO-hGHS-R1a cells); format: cell-based; details: 60 min incubation, dose response up to 30 μM
T1 construct: host or cells: CHO-K1
Experimental: (§1) Chinese hamster ovary (CHO-K1) cells expressing human recombinant ghrelin receptor (GHS-R1a) were purchased from Euroscreen (ES-410-C) and propagated in UltraCHO medium containing glutamine and supplemented with 1% heat inactivated foetal calf serum (FCS), 100 U/ml penicillin, 100 mg/l streptomycin and 0.8 g/l geneticin. Cells were sub-cultured twice a week with a 1:10 dilution. For passaging, cells were washed with 1×DPBS without calcium and magnesium, trypsinised for 10 min with 0.05% Trypsin/EDTA and resuspended in cell culture medium.
The Homogeneous Time-Resolved Fluorescence (HTRF) cAMP dynamic 2 kit (Cisbio International, France) was used as follows. CHO-hGHS-R1a or CHO-rGHS-R1a cells were seeded in a volume of 25 μl culture media at 10,000 cells/well (400,000 cells/ml) in Greiner white 384-well high volume plates and incubated overnight (18-24 h) at 37° C./5% CO2. Then, media was removed and 6 μl assay buffer [HBSS, 10 mM Hepes, 0.2% (w/v) BSA, 1.7 mM IBMX, (pH7.4)] were added to the wells. To generate a dose response up to 30 μM, 10 mM compound stocks in 100% (v/v) DMSO were firstly diluted in 50% (v/v) DMSO followed by a further dilution into assay buffer. Then, 4 μl of 2.5× compound (dose response as 9 point log serial dilution in assay buffer from 30 μM as maximum concentration) were added to each well achieving a final DMSO assay concentration of 0.8% (v/v). 0.1 μM forskolin was added as positive control. After 30 min (rGHS-R1a cell line) or 60 min (hGHS-R1a cell line) incubation at 37° C./5% CO2, 5 μl of cAMP-d2 and 5 μl of anti-cAMP antibody-cryptate, (both made in lysis buffer), were added to the plate followed by 1 h incubation at RT. During this time, cAMP produced by the cells competed with cAMP-d2 for the anti-cAMP antibody-cryptate molecule. Then, the plate was read on the Pherastar instrument (BMG, Germany) at two different emission wavelengths (620 and 650 nm). Increasing levels of endogenous cAMP produced by cells could be followed by a decrease of FRET fluorescent signal and viceversa. Values represented by a change in arbitrary fluorescence ratios (665/620) were converted into cAMP concentrations by using a standard curve, the reagents for which were supplied with the kit. EC50 values of agonists were calculated using the nonlinear logistic function of the Prism 5 software (GraphPad, USA). Emax were expressed as relative values of the ghrelin response, which was defined as 100%.

[3] = molecular target: T1, human recombinant ghrelin receptor (GHS-R1a); test: hGHS-R1a Ca assay (Fluo-4 calcium assay in CHO-K1 cells); format: cell-based; details: for EC50: CHO-K1 cells expressing human GHS-R1a, agonist dose response up to 30 μM
Experimental: as §1
Cells were diluted to achieve 1×10^6 cells/ml, seeded in 384-well black clear bottom CellBind plates at 25000 cells/well (25 ul) and incubated overnight at 37° C./5% CO2 Cells were expected to be 85-90% confluent on the day of assay (checked under the microscope) to ensure a high quality assay. Media was manually removed and 40 μl of loading solution containing probenecid and Fluo-4 no wash dye (a calcium indicator, Invitrogen F36206) were added to each well. After 30 min at 37° C. followed by another 30 min at RT, cpds were added to the wells. To generate a dose response up to 30 μM, 10 mM compound stocks in 100% (v/v) DMSO were firstly diluted in 50% (v/v) DMSO. Then, serial dilutions aimed at a full logarithmic dose responses (8 point) were performed in assay buffer [1×HBSS, 20 mM Hepes, 0.1% (w/v) BSA] to give 2.5% (v/v) DMSO and 5× final compound concentrations. The final assay DMSO concentration was 0.5% (v/v). After loading the cells with Fluo-4 containing solution, plates were read on a CellLux instrument (Perkin Elmer). A protocol set up to add 10 μl of 5× compound and to read the plate for 60 sec after adding the compound at 17th sec was used. Fluorescence excitation took place at 494 nm and emission at 516 nm. EC50 values of agonists were calculated by fitting the percent stimulation over background [(Max−Min)/Min] using the nonlinear logistic function of the Prism 5 software (GraphPad, USA).

T1 sequence (Q92847 whole entry): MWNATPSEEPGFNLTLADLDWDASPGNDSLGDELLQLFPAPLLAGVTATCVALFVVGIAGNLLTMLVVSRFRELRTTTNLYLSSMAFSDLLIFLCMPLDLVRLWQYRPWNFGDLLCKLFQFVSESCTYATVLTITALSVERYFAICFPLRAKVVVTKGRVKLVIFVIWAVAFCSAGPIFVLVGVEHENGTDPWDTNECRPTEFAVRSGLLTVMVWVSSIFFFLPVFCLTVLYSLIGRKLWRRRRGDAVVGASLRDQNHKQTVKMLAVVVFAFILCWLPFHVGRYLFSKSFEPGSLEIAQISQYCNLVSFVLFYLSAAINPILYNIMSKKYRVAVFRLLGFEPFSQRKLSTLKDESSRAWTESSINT

SMILES	aqueous solubility [1]	EC50 [2] [µM]	EC50 [3] [µM]	Emax ([3]; CHO-K1, relative to Emax induced by MK-0677 (defined as 100%)) [%]
CN1C[C@@H](c2ccccc2)[C@@]2(CCCN(C(=O)[C@@H](COCc3ccccc3)NC(=O)C(C)(C)N)C2)C1=O.O=C(O)C[C@H](O)C(=O)O [2-Amino-N-[(R)-1-benzyloxymethyl-2-((4S,5R)-2-methyl-1-oxo-4-phenyl-2,7-diaza-spiro[4.5]dec-7-yl)-2-oxo-ethyl]-2-methyl-propionamide L-malate salt]	increased aqueous solubility	–	–	–
Cc1ccc(C2CN(C)C(=O)C23CCCN(C(=O)[C@@H](COCc2ccccc2)NC(=O)C(C)(C)N)C3)cc1.O=C(O)C[C@H](O)C(=O)O (stereo partly drawn) [2-amino-N-((2R)-3-(benzyloxy)-1-(2-methyl-1-oxo-4-p-tolyl-2,7-diazaspiro[4.5]decan-7-yl)-1-oxopropan-2-yl)-2-methylpropanamide L-malate salt]	increased aqueous solubility	–	–	–
CN1CC(c2ccccc2)C2(CCCN(C(=O)[C@@H](COCc3ccccc3)NC(=O)C(C)(N)C(F)(F)F)C2)C1=O (stereo partly drawn) [Example 1.73, 2-amino-N-((2R)-3-(benzyloxy)-1-(2-methyl-1-oxo-4-phenyl-2,7-diazaspiro[4.5]decan-7-yl)-1-oxopropan-2-yl)-3,3,3-trifluoro-2-methylpropanamide]	–	≥ 30	3.32	–
CN1C[C@H](c2ccccc2)[C@]2(CCCN(C(=O)[C@@H](COCc3ccccc3)NC(=O)C(C)(C)N)C2)C1=O (single isomer, unassigned) [Example 1.0(i)]	–	1.34	0.0023	–
CN1C(=O)C2(CCCN(C(=O)[C@@H](COCc3ccccc3)NC(=O)C(C)(C)N)C2)C1c1ccccc1 (single isomer, unassigned) [Example 2.0(ii)]	–	0.456	0.0011	–
CN1CN(c2ccccc2)C2(CCCN(C(=O)[C@@H](COCc3ccccc3)NC(=O)C(C)(C)N)C2)C1=O (single isomer, unassigned) [Example 1.61]	–	0.517	0.0029	–
CNC(C)(C)C(=O)N[C@H](COCc1ccccc1)C(=O)N1CCCC2(C1)C(=O)N(C)CC2c1ccccc1 (single isomer, unassigned) [Example 1.17]	–	0.082	0.001	–
CC(C)(N)C(=O)N[C@H](COCc1ccccc1)C(=O)N1CCCC2(C1)C(=O)NCC2c1ccccc1 (single isomer, unassigned) [Example 1.49]	–	0.154	0.0006	93
CN1CC(c2ccc(F)cc2)C2(CCCN(C(=O)[C@@H](COCc3ccc(Cl)cc3)NC(=O)C(C)(C)N)C2)C1=O (single isomer, unassigned) [Example 1.57]	–	0.043	0.00022	–
CN1CC(c2ccccc2)C2(CCCN(C(=O)[C@@H](COCc3ccccc3)NC(=O)C(C)(C)N)CC2)C1=O (single isomer, unassigned) [Example 9.0(iv)]	–	0.086	0.0004	–
CN1N=C(c2ccccc2)C2(CCCN(C(=O)[C@@H](COCc3ccccc3)NC(=O)C(C)(C)N)C2)C1=O (mixture of isomers) [Example 1.47, 2-Amino-N-[(R)-1-benzyloxymethyl-2-(3-methyl-4-oxo-1-phenyl-2,3,7-triaza-spiro[4.5]dec-1-en-7-yl)-2-oxo-ethyl]-2-methyl-propionamide]	–	0.385	0.0017	–
CN1C[C@@H](c2ccc(F)cc2)[C@@]2(CCCN(C(=O)[C@@H](COCc3ccccc3)NC(=O)C(C)(C)N)C2)C1=O.O=C(O)C[C@H](O)C(=O)O [2-amino-N-((2R)-3-(benzyloxy)-1-((4S,5R)-4-(4-fluorophenyl)-2-methyl-1-oxo-2,7-diazaspiro[4.5]decan-7-yl)-1-oxopropan-2-yl)-2-methylpropanamide L-malate salt]	increased aqueous solubility	–	–	–
CN1C[C@@H](c2ccccc2)[C@@]2(CCCN(C(=O)[C@@H](COCc3ccccc3)NC(=O)C(C)(C)N)C2)C1=O (single isomer, unassigned) [Example 1.0(ii)]	–	0.043	0.00016	–
